Test results taken from patent US6849633B2, “Pyrazole derivative, production process thereof, and pest control agent containing the same as active ingredient” (Nihon Nohyaku Co., Ltd., priority 1999, dated 2005).

Columns and labels:
Assay type in all cases: in vivo
[1] = test system: larvae of green peach aphid (Myzus persicae); assay: Insecticidal effect on larvae of green peach aphid (leaf dip, Test Example 5); settings: 500 ppm, leaves dipped about 5 seconds, 25° C., 4th day after treatment
Protocol: Insecticidal Effect on Larvae of Green Peach Aphid (Myzus persicae)
Water was put in a screw bottle (volume: 10 ml), and a leafstalk of Japanese radish was placed therein and inoculated with 5 to 6 imagoes of Myzus persicae per leave. After the inoculation, the bottle was put in a glass cylinder (diameter: […]; height: 15 cm) with a mesh cover, and the insects were let to proliferate in a constant temperature room kept at 25° C. for 3 days. The imagoes on the leaves were removed, and the leaves were dipped in an aqueous dilusion of an agricultural and horticultural insecticide prepared of the invention in accordance with Formulation Example 3 for about 5 seconds and then returned into the glass cylinder (duplicates at a concentration). The cylinder was kept in the constant temperature room at 25° C., and the number of the insects on the leaves was counted on the 4th day after the treatment to obtain a death rate (%). The results obtained are shown in Table 6 (the compound numbers in the Table correspond to the numbers in Table 1).

[2] = test system: larvae of brown rice planthopper (Nilaparvata lugens); assay: Insecticidal effect on larvae of brown rice planthopper, rice roots in agent solution (systemic, Test Example 6); settings: for Death Rate (%) at Each Concentration of Active Ingrediet: 4th day; for insecticidal activity through systemic property (in words): summary of root-uptake test against brown rice planthopper
Protocol: (§1) Insecticidal Effect on Larvae of Brown Rice Planthopper (Nilaparvata lugens)
Roots of young rice seedlings (height: about 10 cm) planted in a plastic cup were washed with water and soil was washed away so as not to damage the fine roots. The stem was pinched by a urethane tip (diameter: 3 cm, height: 2 cm) having a cut line and the roots were inserted into an Erlenmeyer flask to which 50 ml of an agent solution (an aqueous diluted solution of agricultural and horticultural insecticide of the invention prepared in accordance with Formulation Example 1) was placed beforehand (2 to 3 young rice seedlings/flask). The urethane tip was wedged into the mouse of the flask to fix the rice seedlings. A glass tube (diameter: 3 cm, height: 5 cm) was placed thereon, wedged into the urethane tip, and fixed with a tape. The flask in such state was kept in a constant temperature room at 25° C. for 3 days. Five larvae of brown rice planthopper were placed in the glass tube and then the tube was capped with a urethane tip, followed by keeping in the constant temperature room at 25° C. (duplicates at a concentration). The mortality and agony of the larvae were examined on 4th day after the treatment to obtain a death rate (%) taking an agonizing insect as a ½ dead insect. This test was carried out on three agent solutions different in the concentration of the active ingredient. The results are shown in Table 7 (the compound numbers in the table correspond to the numbers in Table 1).
As comparative compounds I to V, each compound having a structure shown below (Compound I described in Japanese Patent Laid-Open No. 316771/1988, Compounds II and III described in Examples of WO9845274, and Compounds IV and V included in the claim of WO9845274 but not included in the claim of the present application) was similarly subjected to the test. [drawing 36]
Brown rice planthopper (Nilaparvata lugens) is a highly problematic pest insect species which is harmful as described in Test Example 1, but a sufficient effect can not be attained by the application method of spraying an agent to stems and leafs, provided that the detection is delayed or that an enough amount of the agent is not spread to the roots.
Since this insect species has a characteristic of making its habitat around the roots of rice plant or the like and harming the plant through sucking fluid, more efficient method of controlling the insect may be a method of treating the surface of soil with an agent (granule treatment) before the outbreak of the species occurs widely. However, in order to attain a high controlling effect, a systemic property (a penetrating and migrating property) into a plant body is required as the nature of the agent.

[3] = test system: imagoes of adzuki bean weevil (Callosobruchus chinensis); assay: Insecticidal effect on imagoes of adzuki bean weevil (spray, Test Example 4); settings: 500 ppm, emulsion sprayed, 25° C., after 4 days
Protocol: Insecticidal Effect on Imagoes of Adzuki Bean Weevil (Callosobruchus chinensis)
Two adzuki beans were put in a glass cylinder (inner diameter: 3 cm×length: 15 cm), and 10 imagoes of Callosobruchus chinensis were set free therein. An agricultural and horticultural insecticide of the invention was prepared in accordance with Formulation Example 3 and diluted with water, and 0.3 ml of the resulting emulsion was sprayed in the glass cylinder by means of a spray tower (manufactured by Mizuho Rika) (duplicates at a concentration). The cylinder was kept in a constant temperature room at 25° C., and the mortality and agony of the larvae were examined after 4 days from the treatment to obtain a death rate (%) taking an agonizing insect as a ½ dead insect. The results obtained are shown in Table 5 (the compound numbers in the Table correspond to the numbers in Table 1).

[4] = test system: larvae of diamond back moth (Plutella xylostella); assay: Insecticidal effect on larvae of diamond back moth (leaf disc, Test Example 2); settings: 500 ppm, cabbage leaf disc soaked 1 minute, 3-instar larvae, 25° C., after 4 days
Protocol: Insecticidal Effect on Larvae of Diamond Back Moth (Plutella xylostella)
(§2) A disc (6 cm in diameter) cut out of a cabbage leaf was soaked for 1 minute in an aqueous suspension of the agricultural and horticultural insecticide of the invention prepared in accordance with Formulation Example 1, air-dried, and placed in a plastic cup (inner diameter: 7 cm). Five 3-instar larvae of Plutella xylostella were set free in the cup (duplicates at a concentration). The cup was kept in a constant temperature room at 25° C., and the death and agony of the larvae were examined after 4 days from the treatment to obtain a death rate (%) taking an agonizing insect as a ½ dead insect. The results obtained are shown in Table 3 (the compound numbers in the Table below correspond to the numbers in Table 1).

Oryzias latipes = assay: Test on toxicity to fish using Oryzias latipes (Test Example 7); settings: death rate, 0.5 ppm aqueous solution, adult Oryzias latipes, after 48 hours
Protocol: Test on Toxicity to Fish Using Oryzias latipes
This test example is one example for examining safety of agricultural and horticultural insecticides to the environment.
Ten mg of each compound was dissolved in 1 ml of dimethyl sulfoxide and a 0.05 ml portion thereof was added to a glass beaker containing 1 liter of distilled water to obtain a 0.5 ppm aqueous solution. Into the aqueous solution was put five fishes of Oryzias latipes (adult, average weight: about 360 mg) and the mortality was examined after 48 hours to calculate a death rate (%) (5 fishes per 1 lot/beaker, single run). The results are shown in Table 8 (the compound numbers in the table correspond to the numbers in Table 1).
Similar to Test Example 6, Compound I described in Japanese Patent Laid-Open No. 316771/1988, Compounds II and III described in Examples of WO9845274, and Compounds IV and V included in the claim of WO9845274 but not included in the claim of the present application were subjected to the test, as comparative compounds.

[5] = test system: larvae of common cutworm (Spodoptera litura); assay: Insecticidal effect on larvae of common cutworm (leaf disc, Test Example 3); settings: 500 ppm, cabbage leaf disc soaked 1 minute, 3-instar larvae, 25° C., after 5 days
Protocol: Insecticidal Effect on Larvae of Common Cutworm (Spodoptera litura)
as §2, with “suspension of an agricultural and” for “suspension of the agricultural and”, “larvae of Spodoptera litura were set” for “larvae of Plutella xylostella were set”, “examined after 5 days from” for “examined after 4 days from”, “in Table 4 (the compound” for “in Table 3 (the compound”

[6] = test system: larvae of brown rice planthopper (Nilaparvata lugens); assay: Insecticidal effect on larvae of brown rice planthopper (spray, Test Example 1); settings: 500 ppm, emulsion sprayed, 4th instar larvae, 25° C., after 5 days; agonizing insect counted as 1/2 dead
Protocol: as §1
A rice seedling was planted in a glass cylinder (inner diameter: 3 cm×length: 17 cm), and five 4th instar larvae of brown rice planthopper were set free therein. An agricultural and horticultural insecticide of the invention was prepared in accordance with Formulation Example 3 and diluted with water, and 0.5 ml of the resulting emulsion was sprayed into the cylinder by means of a spraying tower (manufactured by Mizuho Rika) (duplicates at a concentration). The cylinder was kept in a constant temperature room at 25° C., and the mortality and agony of the larvae were examined after 5 days from the treatment to obtain a death rate (%) taking an agonizing insect as a ½ dead insect. The results obtained are shown in Table 2 (the compound numbers in Table 2 correspond to the numbers in Table 1).

cat flea = assay: Insecticidal effect on cat flea (treated filter, Test Example 8); settings: 0.7 mg/filter; mortality examined on 1st day and 2nd day after treatment
Source text: Insecticidal Effect on Cat Flea
After drying, the filter was placed on the bottom of a cylinder (diameter: 10 cm×height: 30 cm). Ten fleas were set free therein and the mortality was examined on 1st day and 2nd day after the treatment to calculate a death rate (%) based on the results. The results are shown in Table 9 (the compound numbers in the table correspond to the numbers in Table 1).

[7] = 0.2 ppm agent solution at rice roots
[8] = 0.8 ppm agent solution at rice roots
[9] = 3.1 ppm agent solution at rice roots

Compound | Death Rate (%) [1] [%] | Death Rate (%) at Each Concentration of Active Ingrediet [2, 7] [%] | Death Rate (%) at Each Concentration of Active Ingrediet [2, 8] [%] | Death Rate (%) at Each Concentration of Active Ingrediet [2, 9] [%] | Death Rate (%) [3] [%] | Death Rate (%) [4] [%] | Toxicity to fish (%) (Oryzias latipes) | Death Rate (%) [5] [%] | Death Rate (%) [6] [%] | Death Rate (%) (cat flea) | insecticidal activity through systemic property (in words) [2]
1-(2,6-dichloro-4-trifluoromethylphenyl)-4-trifluoromethylsulfinyl-5-(1-oxy-pyridin-3-ylmethylamino)pyrazole-3-carbonitrile [Compound 14] | 100 | 100 | 100 | 100 | 100 | 100 | 0 | 100 | 100 | – | –
C[S+]([O-])c1c(C#N)nn(-c2c(Cl)cc(C(F)(F)F)cc2Cl)c1NCc1cnccn1 (stereo not drawn) [Compound 1, 1-(2,6-dichloro-4-trifluoromethylphenyl)-4-methylsulfinyl-5-(pyrazin-2-ylmethylamino)pyrazole-3-carbonitrile] | 100 | 100 | 100 | 100 | 100 | 100 | 0 | – | 100 | – | –
N#Cc1nn(-c2c(Cl)cc(C(F)(F)F)cc2Cl)c(NCc2cnccn2)c1[S+]([O-])C(F)(F)F (stereo not drawn) [Compound 5, 1-(2,6-dichloro-4-trifluoromethylphenyl)-4-trifluoromethylsulfinyl-5-(pyrazin-2-ylmethylamino)pyrazole-3-carbonitrile] | 100 | 100 | 100 | 100 | 100 | 100 | – | 100 | 100 | 100 | –
N#Cc1nn(-c2c(Cl)cc(C(F)(F)F)cc2Cl)c(NCc2cc[n+]([O-])cc2)c1SC(F)(F)F [III] | – | 92 | 100 | 100 | – | – | 60 | – | – | – | –
N#Cc1nn(-c2c(Cl)cc(C(F)(F)F)cc2Cl)c(NCc2ccncc2)c1SC(F)(F)F [II] | – | – | 20 | 50 | – | – | 80 | – | – | – | obviously inferior effect
CSc1c(C#N)nn(-c2c(Cl)cc(C(F)(F)F)cc2Cl)c1NCc1cnccn1 [IV] | – | 100 | 100 | 100 | – | – | 100 | – | – | – | high systemic property
N#Cc1nn(-c2c(Cl)cc(C(F)(F)F)cc2Cl)c(N)c1[S+]([O-])C(F)(F)F (stereo not drawn) [I] | – | 33 | 67 | 92 | – | – | 100 | – | – | – | obviously inferior effect
N#Cc1nn(-c2c(Cl)cc(C(F)(F)F)cc2Cl)c(NCc2cnccn2)c1SC(F)(F)F [V] | – | 55 | 80 | 95 | – | – | 100 | – | – | – | –
